Test results taken from ChEMBL document CHEMBL1201862, “PubChem BioAssay data set” (2004).
Calls of active or inactive are those of the source.

Assays:
[1] = biological target: G-protein coupled receptor 55 (Homo sapiens, UniProt Q9Y2T6); experiment: inhibition of LPI-stimulated GPR55 beta-arrestin translocation – imaging, U2OS, beta-arrestin-GFP, LPI agonist, primary screen (AID 2013); assay type: functional;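 further: antagonist potency measured as reduced agonist-driven arrestin aggregation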
[2] = biological target: Large T antigen (Simian virus 40, UniProt P03070); assay type: functional, Betapolyomavirus macacae;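 further: Confirmatory-stage PubChem screen for compounds that inhibit SV40 T antigen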
Large T antigen, sequence (P03070 whole entry): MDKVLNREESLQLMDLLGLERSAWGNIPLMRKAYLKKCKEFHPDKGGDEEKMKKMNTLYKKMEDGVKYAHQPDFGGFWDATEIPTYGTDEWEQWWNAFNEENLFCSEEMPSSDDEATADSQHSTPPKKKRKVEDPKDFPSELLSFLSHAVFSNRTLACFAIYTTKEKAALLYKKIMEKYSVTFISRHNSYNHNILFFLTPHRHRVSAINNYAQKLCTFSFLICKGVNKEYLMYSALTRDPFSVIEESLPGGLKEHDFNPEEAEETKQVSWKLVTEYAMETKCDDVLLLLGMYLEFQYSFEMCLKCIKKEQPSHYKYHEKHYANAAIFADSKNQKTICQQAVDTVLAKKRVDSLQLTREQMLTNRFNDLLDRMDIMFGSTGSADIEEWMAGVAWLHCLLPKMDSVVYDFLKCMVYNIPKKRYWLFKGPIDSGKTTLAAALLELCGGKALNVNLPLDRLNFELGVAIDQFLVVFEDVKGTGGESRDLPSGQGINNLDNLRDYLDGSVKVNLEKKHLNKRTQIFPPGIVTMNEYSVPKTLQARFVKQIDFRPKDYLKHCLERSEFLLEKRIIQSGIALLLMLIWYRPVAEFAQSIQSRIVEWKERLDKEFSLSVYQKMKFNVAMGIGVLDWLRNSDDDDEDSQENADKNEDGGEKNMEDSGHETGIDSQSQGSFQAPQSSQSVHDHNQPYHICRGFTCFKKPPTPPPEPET

[3] = biological target: Induced myeloid leukemia cell differentiation protein Mcl-1 (Homo sapiens, UniProt Q07820); assay type: functional
Induced myeloid leukemia cell differentiation protein Mcl-1, sequence (Q07820 whole entry): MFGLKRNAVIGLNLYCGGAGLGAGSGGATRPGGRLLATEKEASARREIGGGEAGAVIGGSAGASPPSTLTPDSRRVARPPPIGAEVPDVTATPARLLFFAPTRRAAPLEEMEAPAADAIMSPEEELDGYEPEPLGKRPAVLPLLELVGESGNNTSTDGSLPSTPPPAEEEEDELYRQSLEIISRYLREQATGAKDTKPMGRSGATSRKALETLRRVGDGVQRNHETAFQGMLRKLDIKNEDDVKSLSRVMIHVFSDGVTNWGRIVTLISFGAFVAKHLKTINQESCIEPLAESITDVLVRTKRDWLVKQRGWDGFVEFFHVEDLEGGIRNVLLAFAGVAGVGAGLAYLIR

[4] = Luminescence Cell-Based Dose Retest to Confirm Inhibitors of Cancer Stem Cells. [Related pubchem assays (depositor defined):AID2717, AID2721]; assay type: functional; details: Homo sapiens
[5] = biological target: FAD-linked sulfhydryl oxidase ALR (Homo sapiens, UniProt P55789); experiment: ALR-catalysed DTT oxidation blockers – biochemical, H2O2 detection, luminescence, cherry-pick, dose response (AID 493248)
FAD-linked sulfhydryl oxidase ALR, sequence (P55789 whole entry): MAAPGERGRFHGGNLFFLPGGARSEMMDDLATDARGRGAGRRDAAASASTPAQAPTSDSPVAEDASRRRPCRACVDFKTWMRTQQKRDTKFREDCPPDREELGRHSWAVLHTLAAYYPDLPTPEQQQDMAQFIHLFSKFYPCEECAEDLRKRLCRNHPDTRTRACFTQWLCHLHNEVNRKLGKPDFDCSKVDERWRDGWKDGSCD

[6] = biological target: T1, High affinity choline transporter 1 (Homo sapiens, UniProt Q9GZV3); experiment: human choline transporter blockers, potency – cell-based, 5-point CRC, membrane potential dye, dose response (AID 504840); assay type: functional
T1 sequence (Q9GZV3 whole entry): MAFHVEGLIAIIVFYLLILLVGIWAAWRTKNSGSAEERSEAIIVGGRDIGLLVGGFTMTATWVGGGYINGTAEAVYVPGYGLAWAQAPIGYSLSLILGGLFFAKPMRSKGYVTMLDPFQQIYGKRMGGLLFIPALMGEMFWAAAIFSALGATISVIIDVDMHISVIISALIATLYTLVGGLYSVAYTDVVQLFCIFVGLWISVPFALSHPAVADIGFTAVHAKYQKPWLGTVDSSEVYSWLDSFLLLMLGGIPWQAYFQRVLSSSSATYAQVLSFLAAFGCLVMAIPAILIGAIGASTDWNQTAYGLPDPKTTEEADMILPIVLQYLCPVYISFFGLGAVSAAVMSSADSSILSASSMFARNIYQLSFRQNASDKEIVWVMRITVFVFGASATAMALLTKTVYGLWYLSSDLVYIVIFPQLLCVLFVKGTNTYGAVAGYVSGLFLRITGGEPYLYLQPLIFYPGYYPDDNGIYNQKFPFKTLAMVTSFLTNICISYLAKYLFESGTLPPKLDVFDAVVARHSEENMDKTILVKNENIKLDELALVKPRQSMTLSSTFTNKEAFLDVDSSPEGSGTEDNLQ

[7] = system: Vero; experiment: viability of Vero cells under compound – cytotoxicity control for flavivirus capping enzyme inhibitors (AID 588742); assay type: functional; details: Chlorocebus sabaeus
[8] = biological target: Genome polyprotein (dengue virus type 2, UniProt P29990); experiment: flavivirus cap methylation enzyme inhibition – biochemical, confirmation dose response, primary screen (AID 588689); assay type: functional
Genome polyprotein, sequence (P29990 2492-3391 limits assumed): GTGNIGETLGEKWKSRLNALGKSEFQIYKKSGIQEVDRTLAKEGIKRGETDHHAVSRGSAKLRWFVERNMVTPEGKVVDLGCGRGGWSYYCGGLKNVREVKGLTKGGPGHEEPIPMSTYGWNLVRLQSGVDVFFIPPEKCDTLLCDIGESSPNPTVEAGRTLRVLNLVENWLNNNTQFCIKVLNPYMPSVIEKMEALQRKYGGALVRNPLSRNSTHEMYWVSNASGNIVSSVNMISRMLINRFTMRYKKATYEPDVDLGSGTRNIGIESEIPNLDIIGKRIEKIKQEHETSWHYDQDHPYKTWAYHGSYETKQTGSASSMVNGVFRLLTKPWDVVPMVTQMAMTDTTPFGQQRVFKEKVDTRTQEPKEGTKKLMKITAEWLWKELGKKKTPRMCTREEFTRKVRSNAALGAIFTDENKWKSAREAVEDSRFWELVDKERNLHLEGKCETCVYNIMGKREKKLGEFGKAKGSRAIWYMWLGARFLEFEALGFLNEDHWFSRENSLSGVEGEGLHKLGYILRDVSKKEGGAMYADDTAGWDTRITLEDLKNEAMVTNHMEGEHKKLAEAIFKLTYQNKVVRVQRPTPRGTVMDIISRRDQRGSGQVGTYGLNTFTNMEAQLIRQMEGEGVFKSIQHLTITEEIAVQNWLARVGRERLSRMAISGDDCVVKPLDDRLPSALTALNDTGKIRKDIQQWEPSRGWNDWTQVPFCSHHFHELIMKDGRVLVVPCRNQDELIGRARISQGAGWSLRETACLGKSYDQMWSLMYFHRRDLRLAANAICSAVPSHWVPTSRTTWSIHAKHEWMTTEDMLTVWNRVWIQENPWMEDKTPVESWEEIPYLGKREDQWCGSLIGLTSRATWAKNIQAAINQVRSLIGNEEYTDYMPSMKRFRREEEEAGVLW

[9] = biological target: T2, Type-1 angiotensin II receptor (Homo sapiens, UniProt P30556); experiment: agonist activity at AGTR1 – cell-based, uHTS hits, selectivity assay for APJ receptor agonist project, dose response (AID 488865); assay type: functional;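 further: beta-arrestin recruitment to AT1 measured by enzyme fragment complementation luminescence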
T2 sequence (P30556 whole entry): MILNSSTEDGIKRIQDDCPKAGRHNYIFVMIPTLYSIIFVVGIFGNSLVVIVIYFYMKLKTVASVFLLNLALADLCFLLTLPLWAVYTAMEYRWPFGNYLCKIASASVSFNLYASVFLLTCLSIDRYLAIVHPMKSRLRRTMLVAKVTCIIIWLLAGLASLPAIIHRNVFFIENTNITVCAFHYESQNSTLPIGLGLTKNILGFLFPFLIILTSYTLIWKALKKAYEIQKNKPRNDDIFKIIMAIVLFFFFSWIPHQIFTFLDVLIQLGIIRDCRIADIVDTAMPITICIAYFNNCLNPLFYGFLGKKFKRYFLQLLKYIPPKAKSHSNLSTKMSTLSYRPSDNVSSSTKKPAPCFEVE

[10] = viability of uninfected HEp-2 cells – cell-based, HTS, cytotoxicity control for RSV inhibitor project, dose response (AID 2410); assay type: functional; details: human respiratory syncytial virus
[11] = biological target: Bcl-2-related protein A1 (Mus musculus, UniProt Q07440); assay type: functional;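 further: confirmatory dose–response counterscreen on Bfl-1, used to check hits from a UBC13 polyubiquitin inhibitor campaign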
Bcl-2-related protein A1, sequence (Q07440 whole entry): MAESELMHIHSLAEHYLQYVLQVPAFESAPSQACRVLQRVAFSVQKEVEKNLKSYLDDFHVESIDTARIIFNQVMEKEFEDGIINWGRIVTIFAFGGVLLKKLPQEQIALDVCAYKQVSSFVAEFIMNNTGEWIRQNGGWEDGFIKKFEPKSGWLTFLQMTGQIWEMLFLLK

[12] = biological target: T3, Ubiquitin-conjugating enzyme E2 N (Homo sapiens, UniProt P61088); assay type: functional
T3 sequence (P61088 whole entry): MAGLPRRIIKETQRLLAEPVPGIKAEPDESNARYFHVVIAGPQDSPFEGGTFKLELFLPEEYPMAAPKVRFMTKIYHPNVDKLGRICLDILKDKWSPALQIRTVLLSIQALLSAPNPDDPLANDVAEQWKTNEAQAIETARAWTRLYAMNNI

[13] = biological target: T3, Ubiquitin-conjugating enzyme E2 N; assay type: functional; remark: listed apart in the source
[14] = biological target: Cytochrome P450 2D6 (Homo sapiens, UniProt P10635);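 further: CYP2D6 member of a cytochrome P450 panel assay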
Cytochrome P450 2D6, sequence (P10635 whole entry, the tested form may be a part): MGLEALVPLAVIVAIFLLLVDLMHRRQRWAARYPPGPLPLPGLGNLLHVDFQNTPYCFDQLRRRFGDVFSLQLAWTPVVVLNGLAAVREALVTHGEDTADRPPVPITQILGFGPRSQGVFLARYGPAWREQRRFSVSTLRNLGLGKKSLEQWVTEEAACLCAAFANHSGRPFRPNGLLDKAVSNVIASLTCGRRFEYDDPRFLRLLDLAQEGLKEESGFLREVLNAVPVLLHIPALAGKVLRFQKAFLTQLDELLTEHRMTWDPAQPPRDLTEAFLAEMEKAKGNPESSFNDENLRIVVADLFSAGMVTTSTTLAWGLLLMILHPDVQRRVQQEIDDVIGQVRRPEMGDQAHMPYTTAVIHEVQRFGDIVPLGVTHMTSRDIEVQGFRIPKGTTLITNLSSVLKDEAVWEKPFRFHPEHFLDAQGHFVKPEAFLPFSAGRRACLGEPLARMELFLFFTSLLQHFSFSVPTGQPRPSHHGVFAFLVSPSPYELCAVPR

[15] = biological target: T4, RNA-binding protein pos-1 (Caenorhabditis elegans, UniProt G5EF15); experiment: disruptors of C. elegans POS-1 RNA interaction – biochemical, fluorescence polarization, dose response (AID 1964);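 further: purified POS-1 fused to maltose binding protein made in E. coli; potency of compounds blocking POS-1 binding to fluorescent RNA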
T4 sequence (G5EF15 whole entry): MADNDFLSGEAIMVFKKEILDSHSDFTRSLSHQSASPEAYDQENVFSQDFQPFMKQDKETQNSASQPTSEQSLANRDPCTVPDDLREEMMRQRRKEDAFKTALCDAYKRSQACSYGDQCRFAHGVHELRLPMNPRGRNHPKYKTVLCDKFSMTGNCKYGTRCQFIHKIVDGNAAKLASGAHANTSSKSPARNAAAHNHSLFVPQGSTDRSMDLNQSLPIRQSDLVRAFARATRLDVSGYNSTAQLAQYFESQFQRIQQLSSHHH

[16] = biological target: T5, Zinc finger protein mex-5 (Caenorhabditis elegans, UniProt Q9XUB2); experiment: potency of MEX-5 RNA-binding blockers – biochemical, C. elegans, fluorescence polarization, dose response (AID 1960)
T5 sequence (Q9XUB2 whole entry): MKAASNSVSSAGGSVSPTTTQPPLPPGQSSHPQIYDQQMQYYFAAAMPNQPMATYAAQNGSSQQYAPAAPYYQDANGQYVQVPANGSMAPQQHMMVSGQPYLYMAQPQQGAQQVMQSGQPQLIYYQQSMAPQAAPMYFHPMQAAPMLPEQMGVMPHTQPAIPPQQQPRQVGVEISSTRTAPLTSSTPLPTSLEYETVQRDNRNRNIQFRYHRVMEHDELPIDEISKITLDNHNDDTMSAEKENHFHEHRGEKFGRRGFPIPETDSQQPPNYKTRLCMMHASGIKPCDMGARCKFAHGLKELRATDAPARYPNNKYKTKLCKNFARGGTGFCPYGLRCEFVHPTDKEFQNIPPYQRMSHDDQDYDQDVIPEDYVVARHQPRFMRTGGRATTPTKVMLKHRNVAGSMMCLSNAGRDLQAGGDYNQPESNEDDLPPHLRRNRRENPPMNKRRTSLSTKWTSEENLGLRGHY

[17] = biological target: NS3 (Hepatitis C virus, UniProt A3EZJ3); experiment: PubChem AID 2173; set-up: species or system Hepacivirus hominis
NS3, sequence (A3EZJ3 whole entry): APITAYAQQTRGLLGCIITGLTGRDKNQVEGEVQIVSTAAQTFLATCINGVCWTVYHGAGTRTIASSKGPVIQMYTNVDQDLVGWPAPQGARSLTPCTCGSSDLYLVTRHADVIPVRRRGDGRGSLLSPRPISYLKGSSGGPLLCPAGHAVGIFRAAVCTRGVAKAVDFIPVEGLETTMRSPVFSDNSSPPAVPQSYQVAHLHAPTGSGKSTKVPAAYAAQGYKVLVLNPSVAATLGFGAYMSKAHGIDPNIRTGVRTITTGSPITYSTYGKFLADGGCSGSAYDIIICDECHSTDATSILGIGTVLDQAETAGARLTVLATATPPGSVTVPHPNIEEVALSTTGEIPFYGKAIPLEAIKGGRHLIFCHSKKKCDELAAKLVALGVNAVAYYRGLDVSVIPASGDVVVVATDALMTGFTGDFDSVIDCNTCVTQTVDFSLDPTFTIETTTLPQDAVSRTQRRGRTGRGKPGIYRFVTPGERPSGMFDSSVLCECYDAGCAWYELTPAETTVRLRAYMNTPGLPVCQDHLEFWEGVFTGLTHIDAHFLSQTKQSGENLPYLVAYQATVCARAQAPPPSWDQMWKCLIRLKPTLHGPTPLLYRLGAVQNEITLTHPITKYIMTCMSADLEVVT

[18] = biological target: Troponin, cardiac muscle (Homo sapiens, UniProt P19429+P45379+P63316); experiment: Fluorescence-based biochemical high throughput dose response assay for activators of the calcium sensitivity of cardiac Regulated Thin Filaments (RTF). [Related pubchem assays (depositor defined):AID493008, AID493018, AID504382, AID504383]; assay type: protein-complex assay
[19] = biological target: T6, Endoribonuclease toxin MazF (Escherichia coli K-12, UniProt P0AE70); experiment: activation of MazEF endoribonuclease cleavage – biochemical, fluorescence, single-stranded RNA substrate, uHTS hits, dose response (AID 588481); assay type: functional
T6 sequence (P0AE70 whole entry): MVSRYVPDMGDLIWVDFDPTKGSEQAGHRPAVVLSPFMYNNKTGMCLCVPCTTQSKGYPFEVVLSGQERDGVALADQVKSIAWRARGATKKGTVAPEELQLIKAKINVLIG

[20] = biological target: T6, Endoribonuclease toxin MazF; experiment: substrate-only fluorescence increase artefacts – biochemical, single-stranded RNase substrate, counter-screen for MazEF activator project, dose response (AID 588502); assay type: functional

G-protein coupled receptor 55, sequence (Q9Y2T6 whole entry): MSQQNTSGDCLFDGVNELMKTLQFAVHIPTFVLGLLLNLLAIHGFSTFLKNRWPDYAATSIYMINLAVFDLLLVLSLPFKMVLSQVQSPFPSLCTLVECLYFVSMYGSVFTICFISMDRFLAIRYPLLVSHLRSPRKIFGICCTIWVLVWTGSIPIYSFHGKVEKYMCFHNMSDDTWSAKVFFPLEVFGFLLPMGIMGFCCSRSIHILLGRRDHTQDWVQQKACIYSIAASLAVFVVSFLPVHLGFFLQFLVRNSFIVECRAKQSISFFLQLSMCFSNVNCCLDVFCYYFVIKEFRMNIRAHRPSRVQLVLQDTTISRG

**Q.** Which IC50 [1] does the source give for `Cc1ccc(N2NC(=O)/C(=C\c3cc4c(cc3[N+](=O)[O-])OCO4)C2=O)cc1C` here?
**A.** Its IC50 is 3.3 µM (active).

**Q.** What about the IC50 [2] of the same molecule?
**A.** Its IC50 is 23 µM (active).

**Q.** What about the IC50 [3] of the same molecule?
**A.** The IC50 was 4.66 µM (active).

**Q.** And the AC50 [4]?
**A.** Its AC50 is 3.65 µM (active).

**Q.** And the AC50 [5]?
**A.** Its AC50 is 0.321 µM (active).

**Q.** And the IC50 [6]?
**A.** Its IC50 is 3.98 µM (active).

**Q.** What about the CC50 [7] of the same molecule?
**A.** Its CC50 is > 40 µM (active).

**Q.** And the IC50 [8]?
**A.** The IC50 was 27 µM (active).

**Q.** Which EC50 [9] does the source give for `CN(C)CCCN(C(=O)c1ccc(S(=O)(=O)N2CCc3ccccc3C2)cc1)c1nc2c(F)cccc2s1` here?
**A.** Its EC50 is > 100 µM (inactive).

**Q.** Which CC50 [10] does the source give for `O=C(CCCn1c(=S)[nH]c2ccc(Br)cc2c1=O)N1CCN(c2ccccn2)CC1` here?
**A.** Its CC50 is 23.6 µM (active).

**Q.** What about the IC50 [11] of the same molecule?
**A.** Its IC50 is > 20 µM (inactive).

**Q.** What about the IC50 [12] of the same molecule?
**A.** The IC50 was 19.6 µM (active).

**Q.** And the IC50 [13]?
**A.** Its IC50 is > 20 µM (inactive).

**Q.** And the AC50 [14]?
**A.** The AC50 was 15.8 µM (inconclusive).

**Q.** For `C#CCN(CC=C)C(=O)c1ccc2nc(C3CCCCC3)oc2c1`, which IC50 [1] is on record?
**A.** The IC50 was 4.55 µM (active).

**Q.** What does the source list for `CSc1ccc(C2C(C(=O)c3ccco3)=C(O)C(=O)N2c2nnc(SC)s2)cc1` (stereo unspecified)?
**A.** EC50 [15]: 6.79 µM (active); EC50 [16]: 16.4 µM (active); IC50 [17]: 4.87 µM (active); EC50 [18]: 0.279 µM (active); EC50 [19]: > 99 µM (inactive); EC50 [20]: > 99 µM (inactive)
